Test results: publication PMC8355150, “Bioactive recombinant human oncostatin M for NMR-based screening in drug discovery” (Scientific Reports, 2021)

Target: T1, Oncostatin M (OSM, rhOSM) (Homo sapiens, UniProt P13725)
T1 construct: residues 1–187
T1 sequence (P13725 26-212): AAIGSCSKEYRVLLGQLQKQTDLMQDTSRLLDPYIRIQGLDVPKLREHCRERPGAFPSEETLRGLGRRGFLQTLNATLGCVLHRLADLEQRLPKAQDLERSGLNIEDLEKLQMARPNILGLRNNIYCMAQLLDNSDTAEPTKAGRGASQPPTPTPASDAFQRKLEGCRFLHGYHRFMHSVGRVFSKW
Assay: 1H, […] HSQC NMR titration (chemical shift perturbation); fluorescence quenching (Kd […])
Format: binding

With `O=C(O)/C=C/c1cc(-c2ccc3c(c2)OCO3)c(-c2ccc3c(c2)OCO3)o1` [OSM-SMI-10B] as the compound, how does the Kd read?
Its Kd is 12.2 ± 3.9 µM.
